Test results taken from US20260218132A1, “METHODS AND MATERIALS FOR GENERATING STEM CELL-DERIVED ENDOCRINE CELL TYPES” (Mayo Foundation for Medical Education and Research, priority 2023, published 2026).

Experiments:
PDX1^+/NKX6.1^− PP cells = test: Differentiation of PP cells to delta progenitor cells (stage 4), hormone expression by flow cytometry; type: cell-based, human; details: stage 3 cells treated independently or in combination for 5 days
Method: After 72 hours of culture in mTeSR, the clusters of HUES8 cells were allowed to settle at the bottom of the spinner flask, and spent media was replaced with stage specific differentiation media containing specific growth factors and small molecules.
(§1) The differentiation was carried out in six stages. The generation of PP1 cells from HUES8 cells was carried out using prior protocols with modifications (see, e.g., Pagliuca et al., Cell, 159:428-439 (2014); and Peterson et al., Nat. Commun., 11:Article No. 2241 (14 pages) (2020)); and the delta cell differentiation was further carried out using PP1 cells. The media changes for differentiation were as follows:
(§2) The cell clusters collected during the course of differentiation at different stages were dissociated into single cell suspension by treating with TrypLE Express at 37° C. for 10 minutes after washing twice with phosphate buffered saline (PBS). The enzyme activity was quenched by adding equal volume of S3 media to prevent further degradation, and dispersed single cells were washed with PBS, fixed in 4% paraformaldehyde (PFA) for 20 minutes and subsequently stored at 4° C. until further use. […] The stained cells were acquired in Attune flow cytometer and were analyzed using FlowJo v10 software. […]

delta progenitor cells [1] = test: High-content small molecule screen on delta progenitor cells (step 5); type: cell-based, human; details: library screened at 20 μM, 2 μM and 0.2 μM
Method: (§3) Compounds that increased the percentage of Pre-Delta (PD) cells (positive for somatostatin (SST) while negative for both insulin (INS) and glucagon (GCG)) and reduced the percentage of polyhormonal cells were considered as hits. […] The library was screened at 20 μM, 2 μM, and 0.2 μM final concentrations (FIG. 22).

pre-delta cells [2] = test: High-content small molecule screen and dose response on pre-delta cells (step 6); details: for cell loss at higher concentration: dose response, step 6
Method: Clusters were collected from either Stage 3, or Stage 4, or Stage 5 completed flasks, washed three times with PBS, dispersed into single cells using TrypLE Express for 10 minutes, and quenched using S3 media. […] Chemical compounds were then introduced to each well and incubated at 37° C. in a humidified atmosphere. The fresh media and compounds were added every other day by replacing the spent media. After 5 days for Stage 3 completed cells, 4 days for Stage 4 completed cells, and 7 days for Stage 5 completed cells of incubation, the cells were fixed with 4% PFA and stained for insulin, glucagon, and somatostatin as described herein. Stained cells were imaged with the Cellomics Scan Version 6.6.0 (Thermo Scientific HCS Studio). Twenty-five view fields were captured for each well and analyzed. The percentage of cells expressing only somatostatin was calculated for each well.
Thus, to further increase the percentage of monohormonal SC-δ cells, a small molecule screen on pre-delta cells was conducted, as described earlier with a similar set of criteria (FIG. 2D).

pre-delta cells [3] = test: Differentiation of pre-delta cells to SCδ cells (stage 6), flow cytometry and immunohistochemistry; type: cell-based, human
Method: as §1
(§4) The cell clusters collected during the course of differentiation at different stages were dissociated into single cell suspension by treating with TrypLE Express at 37° C. for 10 minutes after washing twice with phosphate buffered saline (PBS). The enzyme activity was quenched by adding equal volume of S3 media to prevent further degradation, and dispersed single cells were washed with PBS, fixed in 4% paraformaldehyde (PFA) for 20 minutes and subsequently stored at 4° C. until further use. On the day of staining, the cells were passed through 40 μm filter and washed twice with PBS before permeabilizing in block solution (PBS+0.1% Triton X-100+5% donkey serum; PBST). After 40 minutes of blocking, the cells were incubated with primary antibodies in block solution for 1 hour at room temperature (RT), washed twice with PBST, and then incubated with appropriate secondary antibodies in block solution for 1 hour at RT. Finally, cells were washed twice with PBST and resuspended in PBS at a concentration of 1×10^6 cells/mL. The stained cells were acquired in Attune flow cytometer and were analyzed using FlowJo v10 software. The Pdx1 (R&D Systems, AF2419) antibody was used at 1:250, Nkx6.1 (Iowa Hybridoma Bank, F55A12) at 1:100, insulin (Iowa Hybridoma Bank, GN-ID4) at 1:250, glucagon (LSBio, LS-B10219) at 1:25,000, and somatostatin (Santa Cruz Biotechnologies, SC-25262) at a dilution of 1:8000. The secondary antibodies are either donkey-anti-goat-Alexa Fluor 488 (Invitrogen, A-11055, 1:1000), donkey-anti-rabbit-Alexa Fluor 488 (Invitrogen, A-21206, 1:1000), donkey-anti-rat-Alexa Fluor 594 (Invitrogen, A-21209, 1:1000), or donkey-anti-mouse-Alexa Fluor 647 (Invitrogen, A-31571 1:1000).
The differentiated cell clusters or human islets were fixed in 4% PFA and stored at 4° C. until further use. The clusters were washed three times with PBS, set in Histogel (Thermo), embedded in paraffin, and sectioned at 4 μm for histological analysis. Antigen retrieval was performed in citrate buffer (pH 6.5) for 1 hour in boiling water bath on deparaffinized and rehydrated sections, and then allowed to cool for 40 minutes. Sections were then permeabilized and blocked in block solution (PBS+0.1% Triton X-100+5% donkey serum; PBST) for 40 minutes. Primary antibodies were added at appropriate dilutions and incubated overnight at 4° C. On the following day, secondary antibodies were added for 1 hour at room temperature. After thorough rinse with PBST, sections were mounted in Vectashield (Vector Laboratories), covered with coverslips, and sealed with nail polish. The sections were visualized using Zeiss microscope. The secondary antibodies are either donkey-anti-goat-Alexa Fluor 488 (Invitrogen, A-11055, 1:1000), donkey-anti-rabbit-Alexa Fluor 488 (Invitrogen, A-21206, 1:1000), donkey-anti-rat-Alexa Fluor 594 (Invitrogen, A-21209, 1:1000), or donkey-anti-mouse-Alexa Fluor 647 (Invitrogen, A-31571 1:1000).

PP cells = PP cells treated with FGF receptor inhibitors along with RA, somatostatin expressing cells; type: cell-based, human; details: control having only RA, six-well plates, 5 days
Method: as §2, with “use. On the day of staining, the cells were passed through 40 μm filter and washed twice with PBS before permeabilizing in block solution (PBS+0.1% Triton X-100+5% donkey serum; PBST).” for “use.”
To further explore the specificity of inhibition of FGF receptors, PP cells were treated with five additional FGF receptor inhibitors (AZD4547, erdafitinib, roblitinib, pemigatinib, or BGJ398) along with RA (FIG. 7). […] To find an effective concentration of these compounds, differentiated PP cells were transferred to six-well plates and treated with either control having only RA or each FGF receptor inhibitors along with RA for 5 days and quantified the percentage of somatostatin expressing cells.

delta progenitor cells [4] = test: Differentiation of delta progenitor cells to pre-delta cells (stage 5), flow cytometry; type: cell-based, human
Method: as §1, §4, §3

With `CCN(CC)CCCCNc1ncc2cc(-c3cc(OC)cc(OC)c3)c(NC(=O)NC(C)(C)C)nc2n1` [PD173074, 1-tert-butyl-3-[2-[4-(diethylamino)butylamino]-6-(3,5-dimethoxyphenyl)pyrido[2,3-d]pyrimidin-7-yl]urea] the “somatostatin expression in PP cells” value (PDX1^+/NKX6.1^− PP cells) was “induced a small population of somatostatin expression”.
For `C[C@H](NC(=O)Cc1cc(F)cc(F)c1)C(=O)N[C@@H]1C(=O)N(C)c2ccccc2-c2ccccc21` [γ-secretase inhibitor XX, N-[(1S)-2-[[(7S)-6,7-dihydro-5-methyl-6-oxo-5H-dibenz[b,d]azepin-7-yl]amino]-1-methyl-2-oxoethyl]-3,5-difluoro-benzeneacetamide], the “screen outcome, step 5 (increase of pre-delta cells, fewer polyhormonal cells)” value (delta progenitor cells [1]) was “primary hits”.
`C=C[C@@]1(C)CC(=O)[C@]2(O)[C@@]3(C)[C@@H](O)CCC(C)(C)[C@@H]3[C@H](O)[C@H](OC(C)=O)[C@@]2(C)O1` [forskolin, [(3R,4aR,5S,6S,6aS,10S,10aR,10bS)-3-ethenyl-6,10,10b-trihydroxy-3,4a,7,7,10a-pentamethyl-1-oxo-5,6,6a,8,9,10-hexahydro-2H-benzo[f]chromen-5-yl]acetate] was tested, and the “cell loss at higher concentration” value (pre-delta cells [2]) was “severe cell loss”, the SCδ cells (pre-delta cells [3]; 200 μM for 7 days, stage 6, flow cytometry) was 17.51±0.88% and the “percentage of SC-δ cells after long-term culture” value (pre-delta cells [3]; forskolin withdrawn from S3 media, cultured for additional two weeks) was 31.15±1.30%. The SC-α cells (pre-delta cells [3]; stage 6, flow cytometry) was 0.79±0.14%, the “SST^+GCG^+INS^+ cells” value (pre-delta cells [3]; stage 6, flow cytometry) was 11.02±0.60% and the “SST^−GCG^+INS^+ cells” value (pre-delta cells [3]; stage 6, flow cytometry) was 2.36±0.36%.
In the case of `CC1=C(/C=C/C(C)=C/C=C/C(C)=C/C(=O)O)C(C)(C)CCC1` [RA, retinoic acid], the somatostatin expressing cells (PP cells) is reported as 2.53±0.15%.
With `CC(C)[C@H]1C(=O)N[C@H](CO)Cc2c[nH]c3cccc(c23)N1C` [indolactam V, (10S,13S)-13-(hydroxymethyl)-9-methyl-10-propan-2-yl-3,9,12-triazatricyclo[6.6.1.0^4,15]pentadeca-1,4(15),5,7-tetraen-11-one] the “screen outcome, step 5 (increase of pre-delta cells, fewer polyhormonal cells)” value (delta progenitor cells [1]) was “primary hits”, the “dose response, monohormonal SCδ cells” value (pre-delta cells [2]; FIG. 2F, FIG. 24B) was “dose dependent increase in monohormonal SCδ cells” and the “cell loss at higher concentration” value (pre-delta cells [2]) was “severe cell loss”. For the same molecule, the “screen outcome, step 6 (increase of monohormonal SC-δ cells)” value (pre-delta cells [2]; library screened at 20 μM, 2 μM and 0.2 μM) was “primary hits”.
For `c1ccc2c(-c3cnn4cc(-c5ccc(N6CCNCC6)cc5)cnc34)ccnc2c1` [LDN193189, 4-[6-(4-piperazin-1-ylphenyl)pyrazolo[1,5-a]pyrimidin-3-yl]quinolin], the “screen outcome, step 5 (increase of pre-delta cells, fewer polyhormonal cells)” value (delta progenitor cells [1]) was “primary hits”.
With `Cc1cccc(-c2[nH]ncc2-c2ccc3ncccc3n2)n1` [Alk5 inhibitor II, 2-[5-(6-methylpyridin-2-yl)-1H-pyrazol-4-yl]-1,5-naphthyridine] the “monohormonal SC-delta cells on omission of the compound from stage 5” value (delta progenitor cells [4]; Indolactam V and γ-secretase inhibitor XX without Alk5inh II, FIG. 24C) was “significant reduction in monohormonal SC-delta cells”, the “resulting cells express somatostatin” value (delta progenitor cells [4]; delta progenitor cells treated with Alk5i II, FIG. 1D) was “approximately 8%” and the SC-α cells population (delta progenitor cells [4]; stage 5, flow cytometry) was 14.78±1.72%. For the same molecule, the SC-β cells population (delta progenitor cells [4]; stage 5, flow cytometry) was 5.20±0.72%, the “SST^+GCG^+INS^+ cells” value (delta progenitor cells [4]; stage 5, flow cytometry) was 15.46±15.07% and the “SST^−GCG^−INS^− cells” value (delta progenitor cells [4]; stage 5, flow cytometry) was 20.97±7.59%. The polyhormonal cells (delta progenitor cells [4]; stage 5, flow cytometry) was 54.88±6.74% and the “pre-delta cells (somatostatin positive, insulin and glucagon negative)” value (delta progenitor cells [4]; stage 5, flow cytometry) was 4.11±1.12%.
